# Experimental data as given in patent publication US11186627B2 (priority 2013, dated 2021).
# Values joined by “and” are separate entries in the source; they are usually repeats but may differ in a detail not shown here. Equal entries are not always repeated.
# Key:
# [1] = test system: ANN/1203/04 (H5N1) highly pathogenic avian influenza virus; design: species or system ferret; conditions: in vivo, 25 mg/kg
# [2] = test system: A/California/7/09 (H1N1) (H1-CA09); conditions: mouse, in vivo
smiles,measurement,setting,value
CCOC(=O)C1=C[C@@H](OC(CC)CC)[C@H](NC(C)=O)[C@@H](N)C1 [oseltamivir],mean day of death,[1],12 and 9
same,survival rate,[1],100%
same,survival,[2],succumbed to the infection
